From publication PMC10689823, “Discovery of a Drug-like, Natural Product-Inspired DCAF11 Ligand Chemotype” (Nature Communications, 2023)
Where “and” joins values, the source holds several entries; their conditions need not be identical. Equal values may be shown once.

Experiments:
Type in all cases: cell-based
BRD2 [1] = assay: In-Cell Western for BRD2 levels in Hep G2 cells; settings: Hep G2 cells; 4 h
Protocol: Hep G2 cells were seeded in 96-well plates and incubated for 24 h. Compounds were added for the indicated time at the indicated concentration. Cells were then washed once with PBS and fixed with 4% paraformaldehyde for 30 min at room temperature. The fixed cells were permeabilized with 0.5 % Triton-X100 for 15 min followed by block with Intercept® Blocking Buffer (LI-COR Biosciences, 927-70001) for 1 h at room temperature. Primary antibodies for BRD2 (1:800) and Vinculin (1:2000) were diluted with LI-COR buffer and incubated with the cells at 4 °C overnight. Cells were washed with PBS-T, and the secondary antibodies conjugated to IRDye (1:1000, LI-COR Biosciences) were added to the cells for 1 h at room temperature. After washing the cells, the signal was recorded with the Odyssey® CLx Infrared Imaging System (LI-COR Biosciences) and the protein levels were analyzed by Image Studio (LI-COR Biosciences). BRD2 protein levels were normalized to the levels of reference protein vinculin.

[2] = Cell viability assay (CellTiter-Glo) in Jurkat cells; settings: human, Jurkat cells; for viability at 72 h, 10 nmol/L: concentration 10 nmol/L; for viability at 72 h, 100 nmol/L: concentration 100 nmol/L; for viability at 72 h, 300 nmol/L: concentration 300 nmol/L; for viability at 72 h, 1000 nmol/L: concentration 1000 nmol/L; for viability at 72 h, 3000 nmol/L: concentration 3000 nmol/L; for viability at 72 h, 10000 nmol/L: concentration 10000 nmol/L; for viability at 72 h, 0.01 µM: 10 nM; for viability at 72 h, 0.1 µM: 100 nM; for viability at 72 h, 1 µM: 1000 nM; for viability at 72 h, 3 µM: 3000 nM
Protocol: (§1) Jurkat cells (3 × 10^3) and Hep G2 cells (3.5 × 10^3) were seeded in 96-well plates in 100 μL culture medium. Cells were treated with compounds dissolved in 50 μl medium at the indicated concentration for 72 h, at the same time, one plate of cells without compounds treatment was used for the cell count at time zero. After adding 40 μl of CellTiter-Glo® reagent (Promega, G7571) to each well for 10 min at room temperature, the luminescence was measured on a Spark® Multimode Microplate Reader (Tecan). The data was analyzed by the GraphPad Prism 9.0.

Jurkat cells = assay: as above; settings: for GI50: Homo sapiens; for GI50 / Relative cell viability (%): Jurkat cells, 72 h; for Relative cell viability (%): Fig. 4k; for Cell viability (%) relative to DMSO: individual replicates, Supplementary Fig. 7g
Protocol: as §1

caspase-3/7 activity = assay: Caspase-3/7 Activity Assay in Jurkat cells; settings: 18 h, Fig. 4l
Protocol: Jurkat cells (3 × 10^3) were seeded in 96-well plates in 25 μl culture medium. Cells were treated with compounds dissolved in 25 μl medium at the indicated concentration for 18 h. After adding 50 μl of Caspase-Glo® 3/7 Reagent (Promega, G8091) to each well for 30 min at room temperature, the luminescence was measured on a Spark® Multimode Microplate Reader (Tecan). The data was analyzed by the GraphPad Prism 9.0.

BRD2 [3] = target: BRD2 (Homo sapiens, UniProt P25440); assay: BRD2 levels by Western blot in KBM7 cells (WT, DCAF11 knockout, DDB1 knockout); set-up: endogenous in cells; host or cells: KBM7 (WT, DCAF11 KO, DDB1 KO); settings: 4 h
Protocol: Cells were washed with PBS and lysed in lysis buffer (50 mM Tris-HCl, pH 7.4, 150 mM NaCl, 1% Triton X-100, 1% sodium deoxycholate, 0.1% SDS) with complete protease inhibitor cocktail (Roche, 11836170001) for 30 min on ice. For Ramos cells, cell pellets were lysed in lysis buffer (50 mM Tris-HCl, pH 8, 150 mM NaCl, 1% NP-40, 0.5% sodium deoxycholate) with complete protease inhibitor cocktail. After centrifugation at 16,000 x g, the supernatant was transferred into a new tube and the protein concentration was determined by DC protein assay (BIO-RAD, 5000116). Proteins were separated by SDS-PAGE and transferred to a PVDF membrane (Thermo scientific, 0.45 μm, 88518). For PDEδ, BRD2, GAPDH, BRD4, Vinculin and BTK, the membranes were blocked with Intercept® Blocking Buffer (LI-COR Biosciences, 927-70001) at room temperature for 1 h. The primary antibodies for these proteins were diluted with Intercept® Blocking Buffer (1:500 for PDEδ, 1:3000 for Vinculin, and 1:1000 for other proteins) and incubated with the membranes overnight at 4 °C. Membranes were washed with PBS + 0.1% Tween 20 (PBS-T) five times and incubated with secondary antibodies conjugated to IRDye® Infrared Fluorescent Dyes (1:5000, LI-COR Biosciences) at room temperature for 1 h with protection from light. After washing the membrane, signals were visualized using the ChemiDoc MP Imaging System (BIO-RAD Laboratories). For detection of LC3B, BRD3, BLK, DCAF11, DDB1 RBX1, FIP200, V5- and FLAG-Tag the membranes were blocked with 5% milk in PBS-T at room temperature for 1 h. The primary antibodies for these proteins were diluted in 5% milk in PBS-T buffer (1:200 for BRD3, 1:1000 for other proteins) and incubated with the membranes overnight at 4 °C. Membranes were washed with PBS-T five times and incubated with HRP secondary antibodies (1:1500) at room temperature for 1 h. After washing the membrane, protein detection was performed using Western blotting detection reagent (Thermo Scientific, 34095) and the ChemiDoc MP Imaging System (BIO-RAD). Relative band intensities were quantified using Image Lab (BIO-RAD).
DCAF11- or FIP200 (RB1CC1)-targeting sgRNAs were lentivirally packaged using PEI transfection of Lenti-X cells. The viral supernatant was harvested after 72 h, cleared of cellular debris by filtration through a 0.45-µm PES filter and stored in aliquots at −80 °C. The appropriate amount of viral supernatant was transduced into KBM7 cells (1 × 10^6 cells/mL) via spinfection (2000 rpm, 1 h, 37 °C) with polybrene (8 µg/mL). Two days post transduction, the cells were selected with puromycin (1 µg/mL) for a total of 5 days, after which the knockout pools were validated via western blotting.

[4] = individual replicates, Supplementary Fig. 7g, read-out: Cell viability (%) relative to DMSO
[5] = 72 h, Fig. 4k, read-out: Relative cell viability (%)

Sequence of BRD2 (Homo sapiens, UniProt P25440) (P25440 whole entry): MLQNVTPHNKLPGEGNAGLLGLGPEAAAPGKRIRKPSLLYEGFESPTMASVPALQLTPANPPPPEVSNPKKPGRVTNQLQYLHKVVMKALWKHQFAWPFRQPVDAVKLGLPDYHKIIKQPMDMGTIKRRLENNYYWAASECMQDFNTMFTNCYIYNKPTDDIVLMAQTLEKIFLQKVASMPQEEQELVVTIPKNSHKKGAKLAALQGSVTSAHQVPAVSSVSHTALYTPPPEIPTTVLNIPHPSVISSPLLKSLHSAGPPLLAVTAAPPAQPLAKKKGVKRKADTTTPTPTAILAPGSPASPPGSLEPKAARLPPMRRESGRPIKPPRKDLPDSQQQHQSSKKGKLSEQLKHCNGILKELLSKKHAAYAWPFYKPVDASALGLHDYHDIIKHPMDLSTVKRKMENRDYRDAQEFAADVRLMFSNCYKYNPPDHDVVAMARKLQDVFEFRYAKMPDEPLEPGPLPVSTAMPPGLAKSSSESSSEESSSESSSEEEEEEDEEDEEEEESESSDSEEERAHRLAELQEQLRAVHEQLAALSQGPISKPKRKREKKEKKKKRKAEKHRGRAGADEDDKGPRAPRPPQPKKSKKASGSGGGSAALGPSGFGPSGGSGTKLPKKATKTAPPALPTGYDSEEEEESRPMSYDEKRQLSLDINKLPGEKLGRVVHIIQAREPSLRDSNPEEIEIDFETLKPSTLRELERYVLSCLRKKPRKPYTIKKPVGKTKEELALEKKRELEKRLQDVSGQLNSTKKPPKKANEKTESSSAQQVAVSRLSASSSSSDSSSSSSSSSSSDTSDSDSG

GI50 (Jurkat cells) [nM]	SMILES	viability at 72 h, 10 nmol/L [2, 4] [%]	viability at 72 h, 100 nmol/L [2, 4] [%]	viability at 72 h, 300 nmol/L [2, 4] [%]	viability at 72 h, 1000 nmol/L [2, 4] [%]	viability at 72 h, 3000 nmol/L [2, 4] [%]	viability at 72 h, 10000 nmol/L [2, 4] [%]	viability at 72 h, 0.01 µM [2, 5] [%]	viability at 72 h, 0.1 µM [2, 5] [%]	viability at 72 h, 1 µM [2, 5] [%]	viability at 72 h, 3 µM [2, 5] [%]	Relative cell viability (%) (Jurkat cells; 10 nM, 0.01 µM)	Relative cell viability (%) (Jurkat cells; 30 nM, 0.03 µM)	Relative cell viability (%) (Jurkat cells; 100 nM, 0.1 µM)	Relative cell viability (%) (Jurkat cells; 300 nM, 0.3 µM)	Relative cell viability (%) (Jurkat cells; 1000 nM, 1 µM)	Relative cell viability (%) (Jurkat cells; 3000 nM, 3 µM)	Relative cell viability (%) (Jurkat cells; 10000 nM, 10 µM)	Relative cell viability (%) (Jurkat cells; 30000 nM, 30 µM)	Cell viability (%) relative to DMSO (Jurkat cells; concentration 10 nmol/L)	other results
1000 to 1200	Cc1sc2c(c1C)C(c1ccc(Cl)cc1)=NC(CC(=O)NCCOCCOCCOCCOCCNC(=O)COc1c(Br)cc(CC3C(=O)Nc4ccc(Br)cc43)cc1Br)c1nnc(C)n1-2 (stereo not drawn) [Compound 16]	95.2	99.6	96.7	82.7	60	8.63	97.2	92.6	49.7	16.6	112.636% and 96.9495%	115.001% and 96.0444%	99.9011% and 81.8303%	80.1727% and 96.1576% and 71.4791%	60.9647% and 43.3109%	18.6473% and 16.4385%	-0.2254% and 0.02364% and 0.3624%	-0.3131% and -0.2888% and -0.253%	99.6715% and 109.515%	BRD2 depletion by In-Cell Western (BRD2 [1]): did not induce in cellulo degradation; viability at 72 h, 0.03 µM ([2]; 72 h, 30 nM, Fig. 4k, read-out: Relative cell viability (%)): 102%; Cell viability (%) relative to DMSO (Jurkat cells; concentration 30 nmol/L): 97.9616% and 103.22% and 119.751%; Cell viability (%) relative to DMSO (Jurkat cells; concentration 100 nmol/L): 100.592% and 111.273%; Cell viability (%) relative to DMSO (Jurkat cells; concentration 300 nmol/L): 96.8221% and 108.638%; Cell viability (%) relative to DMSO (Jurkat cells; concentration 1000 nmol/L): 85.5266% and 95.8957%; Cell viability (%) relative to DMSO (Jurkat cells; concentration 3000 nmol/L): 59.9059% and 72.5452%; Cell viability (%) relative to DMSO (Jurkat cells; concentration 10000 nmol/L): 8.512% and 16.0463%; Cell viability (%) relative to DMSO (Jurkat cells; concentration 30000 nmol/L): -0.0717% and -0.2673% and -0.08298%; Caspase 3/7 activity (fold change) (caspase-3/7 activity; 0.3 μM): 1.231 fold change and 1.654 fold change and 1.232 fold change; Caspase 3/7 activity (fold change) (caspase-3/7 activity; 1 μM): 1.2 fold change and 1.194 fold change and 1.182 fold change; BRD2 degradation in KBM7 cells (BRD2 [3]): did not induce degradation of BRD2
1000 to 1200	Cc1sc2c(c1C)C(c1ccc(Cl)cc1)=NC(CC(=O)NCCOCCOCCOCCOc1c(Br)cc(CC3C(=O)Nc4ccc(Br)cc43)cc1Br)c1nnc(C)n1-2 (stereo not drawn) [Compound 17]	104	100	92.8	80.1	58.9	38.2	120	104	54.7	23	113.554% and 104.708%	107.162% and 119.822% and 97.6289%	93.2408% and 94.967%	80.2996% and 90.3554% and 69.1714%	51.0815% and 43.0724%	24.9133% and 20.9046%	-0.06982% and 0.1224% and 1.03%	-0.1785% and -0.1531% and -0.21%	97.5079% and 115.29%	viability at 72 h, 30 nmol/L ([2]; concentration 30 nmol/L, individual replicates, Supplementary Fig. 7g, read-out: Cell viability (%) relative to DMSO): 101%; Cell viability (%) relative to DMSO (Jurkat cells; concentration 30 nmol/L): 100.694% and 103.862%; Cell viability (%) relative to DMSO (Jurkat cells; concentration 100 nmol/L): 98.8981% and 102.192%; Cell viability (%) relative to DMSO (Jurkat cells; concentration 300 nmol/L): 95.2575% and 90.332%; Cell viability (%) relative to DMSO (Jurkat cells; concentration 1000 nmol/L): 81.9098% and 92.9141%; Cell viability (%) relative to DMSO (Jurkat cells; concentration 3000 nmol/L): 61.001% and 70.9093%; Cell viability (%) relative to DMSO (Jurkat cells; concentration 10000 nmol/L): 25.3619% and 36.1626%; Cell viability (%) relative to DMSO (Jurkat cells; concentration 30000 nmol/L): 28.6334% and 13.2236% and 16.0233%; Caspase 3/7 activity (fold change) (caspase-3/7 activity; 0.3 μM): 1.197 fold change and 0.791 fold change and 0.9918 fold change; Caspase 3/7 activity (fold change) (caspase-3/7 activity; 1 μM): 1.23 fold change and 0.8887 fold change and 1.1561 fold change; BRD2 degradation in KBM7 cells (BRD2 [3]): did not induce degradation of BRD2
